Normal boiling temperature, refractive index and mass density data for 3 compounds are collected here from the NIST ThermoML archive (doi:10.1016/j.jct.2013.08.011).

The conditions of series [1]: Liquid; for Normal boiling temperature: Ebulliometric method (Recirculating still); for mass density: 293.15 K, 101.33 kPa, Vibrating tube method.
The nature of series [2]: refractive index (Na D-line) (dimensionless). The note with it: 293.15 K; 101.33 kPa; Liquid; Standard Abbe refractometry.

SMILES strings stand for the structures. ± gives the expanded uncertainty stated by the source.

Regarding `OCCO` [1,2-ethanediol], the Normal boiling temperature in series [1] turned out to be 197.48 ± 0.2 °C. Besides, the refractive index in series [2] worked out at 1.4324 ± 0.0007.
Regarding `CC#N` [acetonitrile], in series [1], the mass density stood at 783.4 ± 2 kg/m3 and the Normal boiling temperature was 81.50 ± 0.2 °C. In addition, the refractive index in series [2] is listed as 1.3445 ± 0.0007.
As to `CCCO` [propan-1-ol], in series [1], the mass density is reported as 804.1 ± 2 kg/m3 and the Normal boiling temperature was 97.30 ± 0.2 °C. Moreover, in series [2], the refractive index came out at 1.3865 ± 0.0007.
